Reference: patent US11000033B2, “Ketone or oxime compound, and herbicide” (NISSAN CHEMICAL CORPORATION, priority 2014, dated 2021)

Key:
Type in all cases: in vivo
Apera spica-venti [1] = assay: Test Example 5: herbicidal effect by foliage application, plastic box (symbol L); details: 320 g/ha, 3 weeks after application
Method in brief: (§1)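 After sowing into sterilized diluvial soil and growing two weeks under glass at 25° C. to 30° C., seedlings receive a uniform foliar spray of diluted emulsion. Damage is judged visually three weeks on.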

Monochoria vaginalis [2] = assay: Test Example 1: herbicidal activity, application before weed generation in submerged conditions (symbol C); details: application herbicide amount 320 g/ha
Method in brief: (§2)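 Weeds are sown into submerged alluvial soil alongside transplanted 2.5-leaf rice, and the compound, as an emulsion diluted to a set rate, is applied onto the water before emergence. Rating on the 0–5 herbicidal-ratio scale follows 3 weeks of greenhouse growth at 25–30 °C.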

Scirpus juncoides [3] = assay: Test Example 1: herbicidal activity, application before weed generation in submerged conditions (symbol B); details: application herbicide amount 320 g/ha
Method in brief: as §2

Veronica persica = assay: Test Example 5: herbicidal effect by foliage application, plastic box (symbol R); details: 320 g/ha, 3 weeks after application
Method in brief: as §1

rapeseed [4] = assay: Test Example 4: effect on crop by soil treatment (symbol g); details: application herbicide amount 320 g/ha
Method in brief: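 Seeds were sown in spots on sterilized diluvial soil in a plastic box and covered with about 1.5 cm of soil. Plants were then grown in a greenhouse at 25° C. to 30° C.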

Apera spica-venti [5] = assay: Test Example 4: herbicidal effect by soil treatment (symbol L); details: application herbicide amount 320 g/ha
Method in brief: (§3)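 Seeds were sown in sterilized diluvial soil, covered with about 1.5 cm of soil, and the soil surface was sprayed with a water-diluted emulsion of the compound at a predetermined rate. Plants grew in a greenhouse at 25° C. to 30° C.; effects were scored visually 3 weeks after application.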

Monochoria vaginalis [6] = assay: Test Example 2: herbicidal activity, application during weed generation in submerged conditions (symbol C); details: Table 23; application herbicide amount 320 g/ha; grade 0-5 by criteria of Test Example 1
Method in brief: (§4)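 Steps: fill pots with alluvial soil; add water to 4 cm depth; co-sow the three weeds; grow at 25° C. to 30° C. under glass; at 1–2 leaves, dose the floodwater with diluted emulsion; rate damage visually after 3 weeks.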

[7] = system: Echinochloa crus-galli var. crus-galli; assay: Test Example 4: herbicidal effect by soil treatment (symbol H); details: application herbicide amount 320 g/ha
Method in brief: as §3

Digitaria ciliaris = assay: Test Example 4: herbicidal effect by soil treatment (symbol F); details: application herbicide amount 320 g/ha
Method in brief: as §3

rapeseed [8] = assay: Test Example 5: effect on crop by foliage application, plastic box (symbol g); details: 320 g/ha, 3 weeks after application
Method in brief: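 Box culture: sterile diluvial soil, seeds spot-sown, ~1.5 cm cover, raised under glass at 25–30° C.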

Amaranthus retroflexus = assay: Test Example 5: herbicidal effect by foliage application, plastic box (symbol N); details: 320 g/ha, 3 weeks after application
Method in brief: as §1

Scirpus juncoides [9] = assay: Test Example 2: herbicidal activity, application during weed generation in submerged conditions (symbol B); details: Table 23; application herbicide amount 320 g/ha; grade 0-5 by criteria of Test Example 1
Method in brief: as §4

Setaria viridis = assay: Test Example 5: herbicidal effect by foliage application, plastic box (symbol G); details: 320 g/ha, 3 weeks after application
Method in brief: as §1

Lolium multiflorum Lam. = assay: Test Example 5: herbicidal effect by foliage application, plastic box (symbol K); details: 320 g/ha, 3 weeks after application
Method in brief: as §1

| SMILES | L: Apera spica-venti, herbicidal effect grade (Apera spica-venti [1]) | Herbicidal effect grade, C: Monochoria vaginalis (Monochoria vaginalis [2]) | Herbicidal effect grade, B: Scirpus juncoides (Scirpus juncoides [3]) | R: Veronica persica, herbicidal effect grade (Veronica persica) | g (rapeseed) effect on crop grade (rapeseed [4]) | L (Apera spica-venti) herbicidal effect grade (Apera spica-venti [5]) | Herbicidal effect grade, C: Monochoria vaginalis (Monochoria vaginalis [6]) | H (Echinochloa crus-galli var. crus-galli) herbicidal effect grade [7] | F (Digitaria ciliaris) herbicidal effect grade (Digitaria ciliaris) | g: rapeseed, effect on crop grade (rapeseed [8]) | N: Amaranthus retroflexus, herbicidal effect grade (Amaranthus retroflexus) | Herbicidal effect grade, B: Scirpus juncoides (Scirpus juncoides [9]) | G: Setaria viridis, herbicidal effect grade (Setaria viridis) | K: Lolium multiflorum Lam., herbicidal effect grade (Lolium multiflorum Lam.) | L: Apera spica-venti, herbicidal effect (criteria of Test Example 1) (Apera spica-venti [1]) | R: Veronica persica, herbicidal effect (criteria of Test Example 1) (Veronica persica) | g: rapeseed, effect on crop (criteria of Test Example 1) (rapeseed [8]) | N: Amaranthus retroflexus, herbicidal effect (criteria of Test Example 1) (Amaranthus retroflexus) | G: Setaria viridis, herbicidal effect (criteria of Test Example 1) (Setaria viridis) | K: Lolium multiflorum Lam., herbicidal effect (criteria of Test Example 1) (Lolium multiflorum Lam.) | further results |
| --- | --- | --- | --- | --- | --- | --- | --- | --- | --- | --- | --- | --- | --- | --- | --- | --- | --- | --- | --- | --- | --- |
| CON=C(C)CC1CC(OC(=O)C(C)(C)CCl)=C(c2c(C)cc(C)cc2C)C1=O (stereo not shown) [1-016] | 5 (Herbicidal ratio of 90% or more (almost completely withered)) | 4 (Herbicidal ratio of 70% or higher and lower than 90%) | 5 (Herbicidal ratio of 90% or more (almost completely withered)) | 4 (Herbicidal ratio of 70% or higher and lower than 90%) | 4 (Herbicidal ratio of 70% or higher and lower than 90%) | 5 (Herbicidal ratio of 90% or more (almost completely withered)) | 3 (Herbicidal ratio of 40% or higher and lower than 70%) | 5 (Herbicidal ratio of 90% or more (almost completely withered)) | 5 (Herbicidal ratio of 90% or more (almost completely withered)) | 4 (Herbicidal ratio of 70% or higher and lower than 90%) | 4 (Herbicidal ratio of 70% or higher and lower than 90%) | 4 (Herbicidal ratio of 70% or higher and lower than 90%) | 5 (Herbicidal ratio of 90% or more (almost completely withered)) | 5 (Herbicidal ratio of 90% or more (almost completely withered)) | – | – | – | – | – | – | – |
| CC(=O)CC1CC(O)=C(c2c(C)cc(Br)cc2C)C1=O (stereo not shown) [7-002] | – | 0 (Herbicidal ratio of 5% or lower (almost no effect)) | 0 (Herbicidal ratio of 5% or lower (almost no effect)) | – | – | – | 0 (Herbicidal ratio of 5% or lower (almost no effect)) | – | – | – | – | 0 (Herbicidal ratio of 5% or lower (almost no effect)) | – | – | 3 (Herbicidal ratio of 40% or higher and lower than 70%) | 0 (Herbicidal ratio of 5% or lower (almost no effect)) | 0 (Herbicidal ratio of 5% or lower (almost no effect)) | 0 (Herbicidal ratio of 5% or lower (almost no effect)) | 3 (Herbicidal ratio of 40% or higher and lower than 70%) | 5 (Herbicidal ratio of 90% or more (almost completely withered)) | Effect on crop grade, g: rapeseed (rapeseed [4]): 0 (Herbicidal ratio of 5% or lower (almost no effect)); Herbicidal effect grade, L: Apera spica-venti (Apera spica-venti [5]): 5 (Herbicidal ratio of 90% or more (almost completely withered)); Herbicidal effect grade, H: Echinochloa crus-galli var. crus-galli [7]: 5 (Herbicidal ratio of 90% or more (almost completely withered)); Herbicidal effect grade, F: Digitaria ciliaris (Digitaria ciliaris): 5 (Herbicidal ratio of 90% or more (almost completely withered)) |
| CON=C(C)CC1CC(OC(=O)C2CC2)=C(c2c(C)cc(C)cc2C)C1=O (stereo not shown) [1-015] | 5 (Herbicidal ratio of 90% or more (almost completely withered)) | 2 (Herbicidal ratio of 20% or higher and lower than 40%) | 5 (Herbicidal ratio of 90% or more (almost completely withered)) | 4 (Herbicidal ratio of 70% or higher and lower than 90%) | 4 (Herbicidal ratio of 70% or higher and lower than 90%) | 5 (Herbicidal ratio of 90% or more (almost completely withered)) | 4 (Herbicidal ratio of 70% or higher and lower than 90%) | 5 (Herbicidal ratio of 90% or more (almost completely withered)) | 5 (Herbicidal ratio of 90% or more (almost completely withered)) | 4 (Herbicidal ratio of 70% or higher and lower than 90%) | 4 (Herbicidal ratio of 70% or higher and lower than 90%) | 4 (Herbicidal ratio of 70% or higher and lower than 90%) | 5 (Herbicidal ratio of 90% or more (almost completely withered)) | 5 (Herbicidal ratio of 90% or more (almost completely withered)) | – | – | – | – | – | – | – |
| CON=C(C)CC1CC(O)=C(c2c(C)cc(-c3ncccn3)cc2C)C1=O (mixture of isomers) [6-057] | – | 1 (Herbicidal ratio of 5% or higher and lower than 20%) | 3 (Herbicidal ratio of 40% or higher and lower than 70%) | – | – | – | 0 (Herbicidal ratio of 5% or lower (almost no effect)) | – | – | – | – | 2 (Herbicidal ratio of 20% or higher and lower than 40%) | – | – | 5 (Herbicidal ratio of 90% or more (almost completely withered)) | 4 (Herbicidal ratio of 70% or higher and lower than 90%) | 5 (Herbicidal ratio of 90% or more (almost completely withered)) | 1 (Herbicidal ratio of 5% or higher and lower than 20%) | 5 (Herbicidal ratio of 90% or more (almost completely withered)) | 5 (Herbicidal ratio of 90% or more (almost completely withered)) | g: rapeseed, effect on crop grade (rapeseed [4]): 1 (Herbicidal ratio of 5% or higher and lower than 20%); L: Apera spica-venti, herbicidal effect grade (Apera spica-venti [5]): 4 (Herbicidal ratio of 70% or higher and lower than 90%); H: Echinochloa crus-galli var. crus-galli, herbicidal effect grade [7]: 5 (Herbicidal ratio of 90% or more (almost completely withered)); F: Digitaria ciliaris, herbicidal effect grade (Digitaria ciliaris): 5 (Herbicidal ratio of 90% or more (almost completely withered)) |
| CC(=O)CC1CC(O)=C(c2c(C)cc(C)cc2Br)C1=O (stereo not shown) [7-011] | – | 0 (Herbicidal ratio of 5% or lower (almost no effect)) | 1 (Herbicidal ratio of 5% or higher and lower than 20%) | – | – | – | 0 (Herbicidal ratio of 5% or lower (almost no effect)) | – | – | – | – | 2 (Herbicidal ratio of 20% or higher and lower than 40%) | – | – | 3 (Herbicidal ratio of 40% or higher and lower than 70%) | 1 (Herbicidal ratio of 5% or higher and lower than 20%) | 4 (Herbicidal ratio of 70% or higher and lower than 90%) | 5 (Herbicidal ratio of 90% or more (almost completely withered)) | 3 (Herbicidal ratio of 40% or higher and lower than 70%) | 5 (Herbicidal ratio of 90% or more (almost completely withered)) | Effect on crop grade, g: rapeseed (rapeseed [4]): 4 (Herbicidal ratio of 70% or higher and lower than 90%); Herbicidal effect grade, L: Apera spica-venti (Apera spica-venti [5]): 3 (Herbicidal ratio of 40% or higher and lower than 70%); Herbicidal effect grade, H: Echinochloa crus-galli var. crus-galli [7]: 4 (Herbicidal ratio of 70% or higher and lower than 90%); Herbicidal effect grade, F: Digitaria ciliaris (Digitaria ciliaris): 5 (Herbicidal ratio of 90% or more (almost completely withered)) |
